Reference: patent US20160184254A1, “COMPOSITIONS COMPRISING VITAMIN K DERIVATIVES AND SALTS” (KAPPA BIOSCIENCE AS, priority 2013, published 2016)

Assays:
[1] = Light stability in ethyl acetate (HPLC % area); type: physicochemical; details: for After 19 hrs % / Initial %: clear glass vial; for After 19 hrs %: 19 hours ordinary room lighting, HPLC % area; for Initial %: before light exposure, HPLC % area of total peak area
Description: (§1) The light stability of MK-7 was compared to compounds of the invention as hereinbefore described. Compounds were dissolved separately in ethyl acetate or MCT oil, transferred to glass vial (clear glass) and placed on the bench in a well lit laboratory (ordinary room lighting). The samples were analyzed after 19 hours of light exposure or more.
(§2) The samples were analyzed by HPLC using aHPLC_KB_001, with the HPLC conditions detailed below. • HPLC-DAD high pressure system: Agilent, LC system 1100 series • Analytical column: Supelcosil C-18, 4.6×250 mm, 5 μm • Column temperature: 40° C. • Flow rate: 1 mL/min • Injection volume: 8 μL • UV-detection: 270 nm/340 nm • Run time: 20 min • Eluent system: 50% Solvent C: MeOH/Water with 0.1% v/v acetic acid (95/5 v/v) 50% Solvent D: Isopropanol
(§3) The content of MK-7 and the MK-7 derivative in the samples have been quantified as % area of the total peak area in the chromatogram. […] Note that examples 2a and 2b show the synergistic behaviour discussed after table 2.

[2] = Calcium salt composition: recovery from tablet after direct compression; type: physicochemical; details: for compatibility with calcium in the formulation process: formulated together with calcium salts; for recovered from the tablet after formulation: magnesium stearate, MCC, compared to amount pre-formulation
Description: We combined 47 mg of a 0.19 wt % formulation of the MK-7 derivative of Example 16 (diacetate) in microcrystalline cellulose MCC with 645 mg of 90 wt % calcium carbonate, […] of magnesium stearate and 745 mg of MCC and formulated tablets of this blend using direct compression.
After formulation we recovered the MK-7 derivative from the tablet. We recovered 88 wt % of the derivative from the tablet.
The same experiment was repeated using identical conditions other than the use of MK-7 rather than the MK-7 derivative. We recovered 77.6 wt % of MK7 from the tablet compared to the amount pre-formulation. We show therefore that the loss of MK7 during tableting process is 23%.

[3] = Light stability in MCT oil (HPLC % area); type: physicochemical; details: 24 hours light exposure
Description: as §1, §2, §3

[4] = In vivo testing in rats: MK-7 in plasma after oral gavage; parameters: species or system male Sprague Dawley Rats
Description: Male Rats aged 6 to 8 weeks and weighing around 180 to 225 g. Animals were fasted overnight with free access to water. Animals were administered test substance by oral gavage with a dose of 100 μg/kg body weight (in recommended formulation and dose volume). Blood samples (150-200 μl) were collected at various time points during the next 48 hours post dose. To determine the bioavailability of different formulations containing MK-7 in male e Sprague Dawley Rats through gavage. Formulations were both dissolved in sunflower oil. Approximately 0.4 ml/animal (depending on the weight of the animal) via oral gavage (100 μg/kg body weight). There were 6 animals per formulation. Blood samples were collected from the tail vein of each animal and transferred into lithium heparin tubes at 2 and 12 hours post dose. Quantification of analyte in plasma was determined by LC-MS-MS analysis: Analyte: MK-7 in plasma. The data are mean of four measurements (low and high values are not included).

[5] = tablet with calcium carbonate, direct compression

Row | SMILES | light degradation in ethyl acetate compared with MCT oil ([1]; in ethyl acetate) | After 19 hrs % ([1]; in ethyl acetate) [%] | Initial % ([1]; in ethyl acetate) [%] | degradation after 19 hours of light exposure ([1]; in solution (ethyl acetate, Table 1), 19 hours light exposure) | reduction in the amount present after tabletting ([2]; directly compressed with excipients such as calcium or magnesium) | compatibility with calcium in the formulation process [2] | compatibility with calcium in the formulation process ([2]; listed as MK7) | loss during tableting process [2, 5] [%] | recovered from the tablet after formulation [2, 5] [wt %] | degradation after 24 hours of light exposure [3] | serum level 12 hours after administration compared with MK-7 [4]
1 | CC(C)=CCC/C(C)=C/CC/C(C)=C/CC/C(C)=C/CC/C(C)=C/CC/C(C)=C/CC/C(C)=C/CC1=C(C)C(=O)c2ccccc2C1=O [MK-7, 2-((2E,6E,10E,14E,18E,22E)-3,7,11,15,19,23,27-Heptamethyloctacosa-2,6,10,14,18,22,26-heptaen-1-yl)-3-methylnaphthalene-1,4-dione] | degrades even more rapidly | 53.7 | 99.4 | approximately 50% | up to 30% | degrades rapidly | degrades in the formulation process together with calcium | 23 | 77.6 | approximately 70% | –
2 | CC(=O)Oc1c(C)c(C/C=C(\C)CC/C=C(\C)CC/C=C(\C)CC/C=C(\C)CC/C=C(\C)CC/C=C(\C)CCC=C(C)C)c(OC(C)=O)c2ccccc12 [Example 16] | – | 92.7 | 93.1 | – | – | more compatible with calcium than MK7 | – | – | 88 | – | –
3 | CCC(=O)Oc1c(C)c(C/C=C(\C)CC/C=C(\C)CC/C=C(\C)CC/C=C(\C)CC/C=C(\C)CC/C=C(\C)CCC=C(C)C)c(OC(=O)CC)c2ccccc12 [Example 7, 2-((2E,6E,10E,14E,18E,22E)-3,7,11,15,19,23,27-heptamethyloctacosa-2,6,10,14,18,22,26-heptaen-1-yl)-3-methylnaphthalene-1,4-diyl dipropionate] | – | – | – | – | – | – | – | – | – | – | the same
4 | CC(C)=CCC/C(C)=C/CC/C(C)=C/CC/C(C)=C/CC/C(C)=C/CC/C(C)=C/CC/C(C)=C/Cc1c(C)c(OC(=O)c2ccccc2)c2ccccc2c1OC(=O)c1ccccc1 [Example 1, 2-((2E,6E,10E,14E,18E,22E)-3,7,11,15,19,23,27-heptamethyl-octacosa-2,6,10,14,18,22,26-heptaen-1-yl)-3-methylnaphthalene-1,4-diyl dibenzoate] | – | 95.4 | 98.5 | – | – | – | – | – | – | – | –
